Test results published in patent US20060063711A1, “Use of sglt homolog” (priority 2002, published 2006).

Legend:
[1] = target: T1, human SGLT homolog (hSGLTh) (Homo sapiens, UniProt Q2M3M2, I269M); test: α-methyl glucose uptake in CHO cells expressing hSGLTh; assay type: cell-based; settings: for Uptake of α-Methyl Glucose (% based on Control Group): hSGLTh CHO cells, control = NMDG without NaCl
T1 construct: expressed in transfected cells; host or cells: CHO cells
T1 sequence (Q2M3M2 8-681 I269M limits assumed): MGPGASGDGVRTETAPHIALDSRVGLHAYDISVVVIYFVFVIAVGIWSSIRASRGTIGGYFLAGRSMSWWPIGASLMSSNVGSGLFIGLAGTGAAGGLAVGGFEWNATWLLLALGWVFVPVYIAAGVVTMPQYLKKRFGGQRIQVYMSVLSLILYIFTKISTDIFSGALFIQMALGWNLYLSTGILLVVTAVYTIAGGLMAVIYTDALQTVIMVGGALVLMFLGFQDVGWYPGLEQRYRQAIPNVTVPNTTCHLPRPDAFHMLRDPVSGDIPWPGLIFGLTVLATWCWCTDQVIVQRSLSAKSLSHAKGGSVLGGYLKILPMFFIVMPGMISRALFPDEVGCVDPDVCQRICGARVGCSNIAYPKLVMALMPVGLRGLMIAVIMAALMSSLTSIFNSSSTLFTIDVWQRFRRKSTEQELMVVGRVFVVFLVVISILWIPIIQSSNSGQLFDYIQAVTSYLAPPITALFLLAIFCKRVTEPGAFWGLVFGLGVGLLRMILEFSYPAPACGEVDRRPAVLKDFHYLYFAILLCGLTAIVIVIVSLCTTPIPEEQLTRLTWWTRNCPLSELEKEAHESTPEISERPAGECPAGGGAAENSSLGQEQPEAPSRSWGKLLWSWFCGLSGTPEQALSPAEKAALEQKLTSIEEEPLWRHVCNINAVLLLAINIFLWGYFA
Procedure: (§1) In accordance with the procedures described in Example 4 of WO 02/53738, the CHO cell lines expressing the human SGLT homolog (hSGLTh), mouse SGLT homolog (mSGLTh), rat SGLT homolog (rSGLTh), human SGLT1 (hSGLT1) and human SGLT2 (hSGLT2) were prepared, respectively, and used for experiments. The experimental uptake of α-methyl glucose, which is a glucose analog selectively taken up into the cells by SGLT, was carried out according to the method described in Am. J. Physiol., 270: G833-G843, 1996 and J. Clin. Invest., 93: 397-404, 1994. The cells were plated on 100 μl of DMEM containing 10% FBS charged in a 96-well plate in a cell density of 1×10^5 cells/well, followed by culturing overnight at 37° C. The cells were washed 3 times with 150 μl of a buffer solution (125 mM N-Methyl-D-Glucamine, 1.2 mM KH2PO4, 2.5 mM CaCl2, 1.2 mM MgSO4, 4 mM Glutamine, 10 mM HEPES (pH 7.2), 0.1 mg/ml BSA) and cultured for an hour in the same buffer solution to remove the remaining glucose. The buffer solution was removed and replaced with 90 μl of the same buffer solution or the buffer solution containing NaCl or NaCl+Phlorizin (Sigma) in place of N-Methyl-D-Glucamine (NMDG). After one-hour incubation with 10 μl of 1 mM α-methyl glucose (containing 0.02 μCi of [^14C]-α-Methyl Glucose (Amersham Pharmacia Biotech)) per well, the cells were washed 3 times with 200 μl of chilled PBS buffer. The radioactivity of ^14C taken up into the cells was counted with 100 μl of a liquid scintillator added per well.

[2] = target: T2, mouse SGLT homolog (mSGLTh) (Mus musculus, UniProt Q8VDT1); test: α-methyl glucose uptake in CHO cells expressing mSGLTh; assay type: cell-based; settings: for Uptake of α-Methyl Glucose (% based on Control Group): mSGLTh CHO cells, control = NMDG without NaCl
T2 construct: expressed in transfected cells; host or cells: CHO cells
T2 sequence (Q8VDT1 8-685 limits assumed): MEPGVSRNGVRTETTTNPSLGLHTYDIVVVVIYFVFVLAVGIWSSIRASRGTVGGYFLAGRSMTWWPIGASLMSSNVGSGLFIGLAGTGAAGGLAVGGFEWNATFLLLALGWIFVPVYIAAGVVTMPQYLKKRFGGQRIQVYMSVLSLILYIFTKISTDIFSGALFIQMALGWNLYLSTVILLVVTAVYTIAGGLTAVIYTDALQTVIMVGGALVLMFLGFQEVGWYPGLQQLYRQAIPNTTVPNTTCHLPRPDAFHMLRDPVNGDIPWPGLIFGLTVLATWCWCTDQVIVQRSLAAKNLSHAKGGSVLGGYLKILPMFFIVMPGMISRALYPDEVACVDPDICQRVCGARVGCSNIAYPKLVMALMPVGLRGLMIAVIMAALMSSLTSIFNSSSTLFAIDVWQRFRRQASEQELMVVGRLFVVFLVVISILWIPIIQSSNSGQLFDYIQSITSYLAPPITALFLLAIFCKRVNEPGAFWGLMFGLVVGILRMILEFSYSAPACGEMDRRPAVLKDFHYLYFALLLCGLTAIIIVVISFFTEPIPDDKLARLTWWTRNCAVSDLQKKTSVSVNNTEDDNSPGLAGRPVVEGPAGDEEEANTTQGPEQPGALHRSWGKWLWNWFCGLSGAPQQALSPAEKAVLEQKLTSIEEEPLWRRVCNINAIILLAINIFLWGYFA
Procedure: as §1

hamster small intestine = test: glucose uptake in small intestine by the organ culture system; settings: hamster jejunal slices, NaCl + 30 μM Phlorizin, 10 minutes at 37° C.
Procedure: The glucose uptake level was determined by the intestinal organ culture system in accordance with the procedures described in Peptides, 19: 1249-1253, 1998 and J. Agric. Food Chem., 48: 5618-5623, 2000. The carotid was cut in mice, rats, guinea pigs and hamsters under ether anesthesia to put them to death. The jejunal region was excised, mesenteric fats were removed, the tract was dissected and the contents were washed and cut in 1 cm length. The jejunal slices were washed 3 times with a buffer solution (125 mM N-Methyl-D-Glucamine (NMDG), 1.2 mM KH2PO4, 2.5 mM CaCl2, 1.2 mM MgSO4, 4 mM Glutamine, 10 mM HEPES (pH 7.2), 0.1 mg/ml BSA) and then transferred to a 48-well plate by one slice/well. […]. The jejunal slices were transferred to a mini-vial for liquid scintillation counting. After 500 μl of tissue solubilizer Solvable (Perkin Elmer LifeSciences) was added thereto, the mixture was treated at 50° C. for 2 hours to solubilize the tissues. After 5 ml of liquid scintillator Ultima Gold-XR (Perkin Elmer LifeSciences) was added, ^14C and ^3H taken up into the jejunal slices were counted. […]

What does the source list for `O=C(CCc1ccc(O)cc1)c1c(O)cc(O)cc1O[C@@H]1O[C@H](CO)[C@@H](O)[C@H](O)[C@H]1O` [phlorizin]?
Uptake of α-Methyl Glucose (% based on Control Group) ([1]; NaCl + 3 μM phlorizin): 570 ± 142%; Uptake of α-Methyl Glucose (% based on Control Group) ([1]; NaCl + 100 μM phlorizin): 124 ± 19%; resistance to phlorizin ([1]; human SGLT homolog compared with SGLT1 and SGLT2): more potent than in SGLT1 and SGLT2; Uptake of α-Methyl Glucose (% based on Control Group) ([2]; NaCl + 15 μM phlorizin): 521 ± 35%; Uptake of α-Methyl Glucose (% based on Control Group) ([2]; NaCl + 500 μM): 78 ± 8%; resistance to phlorizin ([2]; mouse SGLT homolog compared with SGLT1 and SGLT2): more potent than in SGLT1 and SGLT2; SGLT activity (α-methyl glucose uptake) resistance to phloridzin (hamster small intestine): strongly resistant
